According to patent US10092648B2, “Selective glucagon-like-peptide-2 (GLP-2) analogues” (Zealand Pharma A/S, priority 2006, dated 2018):
Where two headings read alike, the source gives them in different places.

T1: hGLP-2 receptor (Homo sapiens, UniProt O95838)
T1 construct: expressed in transfected cells; host or cells: BHK-21 (C13) cells, transient transfection with Lipofectamine 2000
T1 sequence (O95838 1-553): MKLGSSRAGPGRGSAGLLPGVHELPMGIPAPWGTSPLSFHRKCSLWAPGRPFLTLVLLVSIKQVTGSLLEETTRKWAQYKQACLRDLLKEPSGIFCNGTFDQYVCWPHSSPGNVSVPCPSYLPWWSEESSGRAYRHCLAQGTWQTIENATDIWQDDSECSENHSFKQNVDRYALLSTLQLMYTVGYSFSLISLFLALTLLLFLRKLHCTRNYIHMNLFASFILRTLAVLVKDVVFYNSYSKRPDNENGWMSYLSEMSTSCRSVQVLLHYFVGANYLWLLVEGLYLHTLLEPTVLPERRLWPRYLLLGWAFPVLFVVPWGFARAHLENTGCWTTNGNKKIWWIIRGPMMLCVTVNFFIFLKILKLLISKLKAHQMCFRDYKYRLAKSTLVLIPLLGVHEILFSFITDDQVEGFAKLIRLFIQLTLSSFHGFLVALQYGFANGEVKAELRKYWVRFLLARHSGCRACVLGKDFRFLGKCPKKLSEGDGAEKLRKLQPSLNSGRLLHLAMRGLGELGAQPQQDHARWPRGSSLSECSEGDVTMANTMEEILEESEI

T2: hGLP-2 receptor (human, UniProt O95838 1-553)
T2 sequence (looked up): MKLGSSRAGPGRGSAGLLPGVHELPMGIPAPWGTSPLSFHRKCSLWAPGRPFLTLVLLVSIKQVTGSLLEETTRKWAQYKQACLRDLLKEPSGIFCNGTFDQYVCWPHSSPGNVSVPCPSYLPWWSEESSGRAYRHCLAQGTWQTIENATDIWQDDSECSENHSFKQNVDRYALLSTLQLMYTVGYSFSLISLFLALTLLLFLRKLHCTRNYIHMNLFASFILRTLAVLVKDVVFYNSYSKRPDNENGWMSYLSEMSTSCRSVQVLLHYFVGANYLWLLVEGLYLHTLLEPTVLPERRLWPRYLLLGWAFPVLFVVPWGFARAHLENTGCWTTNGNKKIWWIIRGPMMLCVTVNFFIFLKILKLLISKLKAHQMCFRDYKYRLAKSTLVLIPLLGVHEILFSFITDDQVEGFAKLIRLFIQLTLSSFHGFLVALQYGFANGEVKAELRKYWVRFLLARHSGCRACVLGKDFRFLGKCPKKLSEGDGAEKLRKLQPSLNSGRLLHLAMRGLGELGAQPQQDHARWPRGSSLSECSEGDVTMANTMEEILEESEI


Legend:
[1] = test system: male C57BL mice; assay: In vivo stimulation of intestinal growth, 800 nmol/kg (Example 10); parameters: key to Small intestine-colon sensitivity index: (SI/Colon) of compound divided by (SI/Colon) of reference GLP-2; settings: 800 nmol/kg s.c. once daily for 3 days; for Small intestine-colon sensitivity index: (SI/Colon)x/(SI/Colon)[Gly2]GLP-2; for Sensitivity index Si/Colon / Sensitivity index Stomach/Co: relative to 1559; for Colon: colon mass relative to BW, % vs. [Gly2]GLP-2; for SI (% vs. [Gly2]GLP-2: small intestine mass relative to BW, [Gly2]GLP-2 = 100%
Description: Individual groups (n=6-10) of mice were given 800 nmol/kg of each compound, s.c, once daily for three consecutive days. For comparison purposes other groups of animals were given either an equimolar dose of [[…]]GLP-2 (ZP1559) or vehicle (phosphate buffered saline, pH 7.4) in the same dosing regimen Twenty-four hours after the last dose of compound had been given the mice were sacrificed and the small intestine (from the pylorus to the cecum) and the colon (intestine distal to cecum) was emptied and weighed. To correct for slight difference in body weight (BW), the organ mass of the small intestine (SI) and colon were expressed relative to BW. The non-selective reference compound [[…]]GLP-2 has been reported to stimulate gastrointestinal growth in both esophagus, stomach, small intestine and colon and to evaluate differences in growth pattern induced by compounds, the small intestine-colon sensitivity index of compound X was calculated as: […]

[2] = molecular target: T1, hGLP-2 receptor; assay: In vitro screening for agonism on the GLP-2 receptor recombinantly expressed in BHK-21 cells (CRE-luciferase reporter); assay type: cell-based
Method: The screening was done using BHK21 cells transiently transfected with GLP-2 receptor and the CRE-luciferase reporter gene construct. Dose-response curves and EC50 values were determined using seven concentrations from 10 fM to 10 nM and triplicate points for each concentration. Control peptide was used on all test plates. BHK-21 cells are seeded in 10 cm TC-Petri dishes and grown to 70-80% confluency. Subsequently, medium is changed to serum-free transfection medium. DNA (7.5 μg hGLP-2 receptor vector and 7.5 μg CRE-luciferase vector) and Lipofectamine 2000 are diluted in OptiMEM, combined, and added to the cells after 20-30 min. Cells are incubated in the incubator at 37° C., 5% CO2 for 4 hr, trypsinized, and reseeded at 35,000 cells per well in 96-well plates. Cells are incubated overnight in full growth medium in order to allow expression of the transgenes. […] Baseline activity is controled with stimulation buffer alone. These solutions are pre-warmed to 37° C. for 30 min. Cells are rinsed with pre-warmed (37° C.) stimulation buffer, and incubated with 100 μl of the pre-warmed peptide dilutions and control for 5 hr at 37° C., 5% CO2. The LucLite enzyme substrate/lysis buffer is prepared shortly before the end of the incubation. 100 μl LucLite substrate are added to each well, and light emission is counted on a suitable counter (e.g. Wallac VictorII). EC50 values are derived from the raw data by fitting with a four parameter logistic equation (Microcal Origin 5.0 or GraphPad 4).

[3] = test system: male C57BL mice; assay: In vivo stimulation of stomach growth, 200 nmol/kg (Example 12); settings: for Sensitivity index Stomach/Co: ratio Stomach-BW / Colon-BW; for Stomach-BW, compared to 1559 in %: stomach weight relative to body weight, relative to ZP1559
Summary of the method: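 Mice (n=6-10/group) received 200 nmol/kg s.c. once daily for 3 days, with PBS pH 7.4 vehicle and an equimolar GLP-2 comparator. Stomach/colon sensitivity index relative to GLP-2 was calculated, with ≥1.05 deemed stomach-selective.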

[4] = test system: male C57BL mice; assay: In vivo stimulation of intestinal growth, 200 nmol/kg (Example 11); settings: for Colon-BW, compared to 1559 in %: colon weight relative to body weight; for Colon-BW, compared to 1559 in % / SI-BW, compared to 1559 in %: relative to ZP1559; for Sensitivity index Si/Co: ratio SI-BW / Colon-BW; for SI-BW, compared to 1559 in %: small intestine weight relative to body weight
Summary of the method: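 Mice (n=6-10 per group) dosed s.c. at 200 nmol/kg once daily for three days; controls received equimolar [[MUT]]GLP-2 or PBS pH 7.4 vehicle.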

[5] = DPP IV degradation and renal clearance; Tavares et al. 2000; cited from earlier work
[6] = molecular target: T2, hGLP-2 receptor; assay: cell-based or functional assay
[7] = BHK21 cells transiently transfected with GLP-2 receptor and CRE-luciferase, 10 fM to 10 nM, read-out: pEC50 (converted)

EC50 [2, 7] | EC50 ([2]; agonism on GLP-2 receptor in BHK-21 cells, read-out: IC 50 (FIG. 5)) | pEC50 (CRE-luciferase reporter, BHK-21 cells transiently transfected with hGLP-2 receptor) [6] | Molecule | Colon-BW, compared to 1559 in % [1] | Preferential stimulation of epithelial growth in the small intestine (summary) [1] | SI-BW, compared to 1559 in % [1] | Sto-BW, compared to 1559 in % [1] | Small intestine-colon sensitivity index [1] | Sensitivity index Si/Colon [1] | Sensitivity index Stomach/Co [1] | Colon [1] | SI (% vs. [Gly2]GLP-2 [1] | EC50 [2] | Sensitivity index Stomach/Co [3] | Stomach-BW, compared to 1559 in % [3] | Colon-BW, compared to 1559 in % [4] | Sensitivity index Si/Co [4] | SI-BW, compared to 1559 in % [4] | Organ selectivity (FIG. 8, unselective compounds) [1] | half life [5]
 |  |  | H-HGEGSFSDELATILEALAASDFISWLISTKITD-NH2 [ZP2268] | 112.5% | preferentially stimulating epithelial growth in the small intestine | 123.6% | 87.4% | 1.10 ± 0.03 | 1.10 | 0.78 | 112 ± 4 % | 124 ± 3 % | 0.00617 nM | 0.78 | 87.4% | 112.5% | 1.10 | 123.6% |  | 
0.0145 nM |  |  | H-HGEGSFSDELSTILESLAASDFISWLISTKITD-NH2 [ZP2263] |  |  |  |  |  |  |  |  |  |  |  |  |  |  |  |  | 
0.0912 nM |  |  | H-HGEGSFSDELKTILESLAAADFIEWLIQTKITD-NH2 [ZP2269] | 94.7% |  | 97.4% | 99.8% |  | 1.03 | 1.05 | 95 ± 3% | 97 ± 2% |  |  |  |  |  |  | unselective for the small intestine, colon or stomach | 
0.0135 nM |  |  | H-HGEGSFSDELSTILESLAAADFIAWLIATKITD-NH2 [ZP2267] | 109.4% |  | 108.5% | 85.9% |  | 0.99 | 0.79 | 109 ± 4% | 108 ± 2% |  |  |  |  |  |  | unselective for the small intestine, colon or stomach | 
0.558 nM |  |  | H-HGEGSFSDELETILEELAAEDFIEWLIETKITD-NH2 [ZP2266] | 100.6% |  | 95.3% | 93.6% |  | 0.95 | 0.93 | 101 ± 2% | 95 ± 1% |  |  |  |  |  |  | unselective for the small intestine, colon or stomach | 
 |  |  | H-His-Ala-Asp-Gly-Ser-Phe-Ser-Asp-Glu-Met-Asn-Thr-Ile-Leu-Asp-Asn-Leu-Ala-Ala-Arg-Asp-Phe-Ile-Asn-Trp-Leu-Ile-Gln-Thr-Lys-Ile-Thr-Asp-OH [GLP-2(1-33)] |  |  |  |  |  |  |  |  |  |  |  |  |  |  |  |  | about 7 minutes
0.00537 nM |  |  | H-HGEGSFSDELATILESLAAADFISWLIATKITD-NH2 [ZP2272] | 104.7% | preferentially stimulating epithelial growth in the small intestine | 118.1% | 96% |  | 1.13 | 0.92 | 105 ± 6% | 118 ± 2% |  | 0.92 | 96% | 104.7% | 1.13 | 118.1% |  | 
0.00316 nM | 0.00355 nM |  | H-HGEGSFSDELATILEALAAADFIAWLIATKITD-NH2 [ZP2264] | 109.5% | preferentially stimulating epithelial growth in the small intestine | 125.7% | 87% | 1.15 ± 0.03 | 1.15 | 0.79 | 109 ± 3 % | 126 ± 3 % |  | 0.79 | 87% | 109.5% | 1.15 | 125.7% |  | 
 |  |  | H-HGEGSFSDELNTILESLAASDFISWLISTKITD-NH2 [ZP2270] |  |  |  |  |  |  |  |  |  | 0.0589 nM |  |  |  |  |  |  | 
 |  | 11.3 | H-HGEGSFSDELATILESLAAADFISWLIATKITD-NH2 [ZP2272] |  |  |  |  |  |  |  |  |  |  |  |  |  |  |  |  | 
 |  | 12.4 | H-HGEGSFSSELSTILDALAARDFIAWLIATKITDK-OH [ZP2242] |  |  |  |  |  |  |  |  |  |  |  |  |  |  |  |  | 
